From article PMC9130538, “Amino acids in transmembrane helix 1 confer major functional differences between human and mouse orthologs of the polyspecific membrane transporter OCT1” (The Journal of Biological Chemistry, 2022)
Entries after “also recorded” stand apart in the source; their conditions may differ. Where two headings read alike, the source gives them in different places.

What was measured:
human OCT1 [1] = biological target: T1, human OCT1 (Homo sapiens, UniProt O15245); assay: Cellular uptake by HEK293 cells overexpressing human OCT1 (wildtype); conditions: for transport by human OCT1 (saturability): concentration-dependent uptake, stably transfected HEK293, 2 min
T1 sequence (O15245 1-554): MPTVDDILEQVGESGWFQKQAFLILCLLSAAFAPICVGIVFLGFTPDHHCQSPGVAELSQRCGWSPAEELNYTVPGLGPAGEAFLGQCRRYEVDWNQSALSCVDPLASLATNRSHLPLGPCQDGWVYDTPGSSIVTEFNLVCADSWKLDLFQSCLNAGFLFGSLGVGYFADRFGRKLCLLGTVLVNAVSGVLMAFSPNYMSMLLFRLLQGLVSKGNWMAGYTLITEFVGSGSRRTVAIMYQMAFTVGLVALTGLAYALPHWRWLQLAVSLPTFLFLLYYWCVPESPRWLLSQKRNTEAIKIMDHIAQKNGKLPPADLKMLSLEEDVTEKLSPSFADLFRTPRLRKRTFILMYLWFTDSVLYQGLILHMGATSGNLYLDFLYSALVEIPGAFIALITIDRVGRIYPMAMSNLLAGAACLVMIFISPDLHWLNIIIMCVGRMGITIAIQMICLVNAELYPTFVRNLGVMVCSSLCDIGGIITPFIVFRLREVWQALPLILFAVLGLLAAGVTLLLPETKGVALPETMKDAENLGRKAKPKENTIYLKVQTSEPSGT
Protocol: (§1) Generation and characterization of these cell lines has been described in detail before ([34], [48], [49]). Cells were cultured in Dulbecco’s Modified Eagle’s Medium supplemented with 10% fetal bovine serum, 100 U/ml penicillin, and 100 μg/ml streptomycin at 37 °C and 5% CO2 and were passaged twice a week.
(§2) At 48 h prior to the experiment, 6 × 10^5 cells were seeded per well in 12-well plates. When using transiently transfected cells, 5 × 10^5 T-REx-293 cells (Life Technologies) were seeded per well in 12-well plates 72 h prior to the experiment, and they were transfected 24 h later as described previously. Twelve-well plates were precoated with poly-D-lysine.
(§3) Cellular uptake experiments were performed at 37 °C and pH 7.4 using HBSS supplemented with 10 mM Hepes (in the following referred to as HBSS+). Cells were washed with 1 ml prewarmed (37 °C) HBSS+, and the uptake was initiated by adding 400 μl of prewarmed HBSS+ containing the substrate. Uptake was allowed for exactly 2 min and afterward stopped by adding 2 ml ice-cold HBSS+. Cells were washed twice with 2 ml ice-cold HBSS+ and lysed with 80% acetonitrile supplemented with internal standard, 0.1 N NaOH/0.1% SDS, or radioimmunoprecipitation buffer for LC–MS/MS, liquid scintillation counting, or fluorescence spectroscopy detection, respectively. Intracellular substrate concentrations were measured as described in the following and were then normalized to the amount of total protein in the samples as measured using the bicinchoninic acid assay ([51]).
(§4) For LC–MS/MS quantification of intracellular substrate concentrations, the cell lysate was centrifuged at 16,000g for 15 min, and 350 μl of supernatant was evaporated to dryness under nitrogen flow at 40 °C. The sample was reconstituted with 200 μl 0.1% formic acid, and between 2 and 30 μl were injected into the LC–MS/MS system (Table S1).
(§5) An API4000 QTRAP tandem mass spectrometer with ESI interface (AB SCIEX) was used, coupled to a Shimadzu Nexera X2 UHPLC system with LC 30AD pumps and SiL 30AC autosampler (Shimadzu).
(§6) Intracellular concentrations of radioactively labeled substrates MPP^+ and TEA^+ were quantified using liquid scintillation counting. To this end, 400 μl cell lysate was transferred into a 20 ml scintillation vial, 9 ml Aquasafe 500 Plus liquid scintillator (both Zinsser Analytics) was added, and the sample was measured in the Scintillation Counter LS6500 (Beckman Coulter).
(§7) For both analyses, SPSS Statistics, version 28 (SPSS, Inc, IBM) was used.

mouse Oct1 [2] = biological target: T2, mouse Oct1 (Mus musculus, UniProt O08966); assay: Cellular uptake by HEK293 cells overexpressing mouse Oct1 (wildtype)
T2 sequence (O08966 1-556): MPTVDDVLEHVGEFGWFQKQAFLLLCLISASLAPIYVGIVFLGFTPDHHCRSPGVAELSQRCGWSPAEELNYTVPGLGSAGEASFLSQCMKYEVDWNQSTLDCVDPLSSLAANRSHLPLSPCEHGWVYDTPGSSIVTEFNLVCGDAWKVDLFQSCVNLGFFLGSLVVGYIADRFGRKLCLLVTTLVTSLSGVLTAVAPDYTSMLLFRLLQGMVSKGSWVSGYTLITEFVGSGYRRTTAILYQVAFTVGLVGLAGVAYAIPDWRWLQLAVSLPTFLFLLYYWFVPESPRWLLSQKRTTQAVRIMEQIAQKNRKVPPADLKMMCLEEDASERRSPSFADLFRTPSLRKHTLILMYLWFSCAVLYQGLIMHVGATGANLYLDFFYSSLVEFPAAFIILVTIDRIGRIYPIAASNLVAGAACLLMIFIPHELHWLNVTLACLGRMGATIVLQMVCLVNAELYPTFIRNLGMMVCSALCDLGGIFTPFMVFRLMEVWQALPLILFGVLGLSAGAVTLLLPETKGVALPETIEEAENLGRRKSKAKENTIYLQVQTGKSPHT
Protocol: as §1, §2, §3, §4, §5, §6, §7

mouse Oct1 [3] = biological target: T2, mouse Oct1; set-up: expressed in transfected cells; method as in PMID 33037045, PMID 34040533; conditions: HEK293 stably transfected, 2 min, data previously published, ref [34], [35], cited from earlier work; for Km: read-out: KM ± SD, mOct1
human OCT1 [4] = biological target: T1, human OCT1; set-up: expressed in transfected cells; method as in PMID 33037045, PMID 34040533; conditions: HEK293 stably transfected, 2 min, data previously published, ref [34], [35], cited from earlier work; for Km: read-out: KM ± SD, hOCT1
[5] = HEK293 stably transfected, 2 min uptake, 37 °C, pH 7.4, OCT1-mediated uptake
[6] = human versus mouse OCT1, stably transfected HEK293
[7] = read-out: KM ± SD, hOCT1, HEK293 stably transfected, 2 min uptake, 37 °C, pH 7.4
[8] = ASP^+ by fluorescence spectroscopy, HEK293 stably transfected, 2 min

In the case of C[N+](C)(C)CCO [Choline], the “transport by human OCT1 (saturability)” value (human OCT1 [1]) is reported as “lacked any saturable transport; also recorded: not transported at all”.

With COc1ccc(CC(C)NCC(O)c2ccc(O)c(NC=O)c2)cc1 (centres unmarked) [Formoterol] the “vmax ± SD, hOCT1” value (human OCT1 [1]; [5]) was 434 ± 111 pmol × min^−1 × mg protein^−1 and the “vmax ± SD, mOct1” value (mouse Oct1 [2]; [5]) was 1458 ± 317 pmol × min^−1 × mg protein^−1.

With CC(C)NCC(O)c1cc(O)cc(O)c1 (centres unmarked) [Orciprenaline] the “fold lower affinity (KM) of human OCT1 than mouse Oct1 (higher affinity of mouse Oct1)” value (human OCT1 [1]; [6]) was “more than sixfold higher affinity of mouse Oct1”.

With C[n+]1ccc(-c2ccccc2)cc1 [MPP^+, 1-methyl-4-phenylpyridinium] the “vmax ± SD, hOCT1” value (human OCT1 [1]; [5]) was 3112 ± 419 pmol × min^−1 × mg protein^−1, the Km (human OCT1 [1]; [7]) was 71.1 ± 17.3 µM and the “CLint ± SD, mOct1” value (mouse Oct1 [2]) was 80.8 ± 12.1 μl × min^−1 × mg protein^−1. The Km (mouse Oct1 [2]; pH 7.4) was 24.4 ± 7.95 µM and the “vmax ± SD, mOct1” value (mouse Oct1 [2]; pH 7.4) was 1910 ± 450 pmol × min^−1 × mg protein^−1.

For CC(NCCc1ccc(O)cc1)C(O)c1ccc(O)cc1 (centres unmarked) [Ritodrine], the “fold higher affinity (KM) of human than of mouse OCT1” value (human OCT1 [1]; [6]) was ~10 fold.

For CC(C)C(=O)O[C@H](CC(=O)[O-])C[N+](C)(C)C [IBC, isobutyryl-L-carnitine], the “transport by human OCT1 (saturability)” value (human OCT1 [1]) is listed as “not transported at all”, the “transport by human OCT1 (saturability)” value (human OCT1 [1]; listed as isobutyryl-L-carnitine (IBC)) is listed as “lacked any saturable transport” and the “vmax ± SD, mOct1” value (mouse Oct1 [3]) is listed as 8366 ± 1705 pmol × min^−1 × mg protein^−1. For the same molecule, the Km (mouse Oct1 [3]) was 1380 ± 356 µM.

For [H]/N=C(/N)N/C(=N/[H])NCCc1ccccc1 [Phenformin], the “CLint ± SD, hOCT1” value (human OCT1 [1]; human, pH 7.4) was 106 ± 22.8 μl × min^−1 × mg protein^−1 and the “CLint ± SD, mOct1” value (mouse Oct1 [2]; mouse, pH 7.4) was 143 ± 26.2 μl × min^−1 × mg protein^−1.

For CC(CCc1ccc(O)cc1)NCC(O)c1ccc(O)cc1 (centres unmarked) [Ractopamine], the “fold higher affinity (KM) of human than of mouse OCT1” value (human OCT1 [1]; [6]) was “comparable between human and mouse OCT1”.

With NC[C@H](O)c1ccc(O)c(O)c1 [Noradrenaline] the “transport by human OCT1 (saturability)” value (human OCT1 [1]) was “lacked any saturable transport”.

In the case of Cc1ncc(C[n+]2csc(CCO)c2C)c(N)n1 [Thiamine], the “vmax ± SD, hOCT1” value (human OCT1 [4]) is listed as 8261 ± 3720 pmol × min^−1 × mg protein^−1, the Km (human OCT1 [4]) is listed as 1060 ± 341 µM and the “vmax ± SD, mOct1” value (mouse Oct1 [3]) is listed as 3712 ± 1031 pmol × min^−1 × mg protein^−1. The Km (mouse Oct1 [3]) was 143 ± 96.3 µM.

In the case of CC[N+](CC)(CC)CC [TEA^+, tetraethylammonium], the “CLint ± SD, hOCT1” value (human OCT1 [1]) is reported as 6.31 ± 2.45 μl × min^−1 × mg protein^−1, the Km (human OCT1 [1]; pH 7.4) is reported as 749 ± 438 µM and the “vmax ± SD, hOCT1” value (human OCT1 [1]; pH 7.4) is reported as 4207 ± 1511 pmol × min^−1 × mg protein^−1. For the same molecule, the “CLint ± SD, mOct1” value (mouse Oct1 [2]) was 27.6 ± 9.72 μl × min^−1 × mg protein^−1, the Km (mouse Oct1 [2]; pH 7.4) was 305 ± 141 µM and the “vmax ± SD, mOct1” value (mouse Oct1 [2]; pH 7.4) was 7764 ± 2883 pmol × min^−1 × mg protein^−1.

In the case of CN(C)c1ccc(C=Cc2cc[n+](C)cc2)cc1 [ASP^+, 4-(4-(dimethylamino)styryl)-N-methylpyridinium], the “vmax ± SD, hOCT1” value (human OCT1 [1]; [8]) is reported as 361,671 ± 2974 RFU × min^−1 × mg protein^−1, the Km (human OCT1 [1]; [7]) is reported as 63 ± 15.3 µM and the “vmax ± SD, mOct1” value (mouse Oct1 [2]; [8]) is reported as 53,802 ± 7155 RFU × min^−1 × mg protein^−1. The Km (mouse Oct1 [2]; read-out: KM ± SD, mOct1, HEK293 stably transfected, 2 min uptake, 37 °C, pH 7.4) was 12.8 ± 2.97 µM.

For C[N@+]1(CC2CC2)CC[C@]23c4c5ccc(O)c4O[C@H]2C(=O)CC[C@@]3(O)[C@H]1C5 [Methylnaltrexone], the “vmax ± SD, mOct1” value (mouse Oct1 [2]; [5]) was 414 ± 130 pmol × min^−1 × mg protein^−1.

In the case of C[N+]1(C)[C@@H]2C[C@@H](OC(=O)C(O)(c3cccs3)c3cccs3)C[C@H]1[C@@H]1O[C@@H]12 [Tiotropium], the Km (human OCT1 [1]; human, pH 7.4) is reported as 7.82 ± 1.77 µM, the “vmax ± SD, hOCT1” value (human OCT1 [1]; pH 7.4) is reported as 836 ± 322 pmol × min^−1 × mg protein^−1 and the Km (mouse Oct1 [2]; mouse, pH 7.4) is reported as 1.47 ± 0.12 µM. The “vmax ± SD, mOct1” value (mouse Oct1 [2]; pH 7.4) was 285 ± 87.1 pmol × min^−1 × mg protein^−1.

In the case of CN(C)C(=N)N=C(N)N [Metformin], the “vmax ± SD, hOCT1” value (human OCT1 [4]) is listed as 14,703 ± 4346 pmol × min^−1 × mg protein^−1, the Km (human OCT1 [4]) is listed as 2200 ± 1150 µM and the “vmax ± SD, mOct1” value (mouse Oct1 [3]) is listed as 17,496 ± 7097 pmol × min^−1 × mg protein^−1. The Km (mouse Oct1 [3]) was 491 ± 155 µM.
